Data published in the NIST ThermoML archive (doi:10.1016/j.fluid.2017.12.026).
± gives the expanded uncertainty stated by the source.

Settings: Coaxial cylinder method

CCCCC [pentane]
Settings	thermal conductivity [W/m/K]
465.4 K, 9497 kPa, Liquid	0.07785 ± 0.003
465.4 K, 9610 kPa, Liquid	0.07785 ± 0.003
465.4 K, 9891 kPa, Liquid	0.07814 ± 0.003
466.27 K, 100 kPa, Gas	0.03453 ± 0.0012
466.28 K, 100 kPa, Gas	0.03449 ± 0.0012
466.29 K, 100 kPa, Gas	0.03442 ± 0.0012
466.3 K, 100 kPa, Gas	0.03439 ± 0.0012
466.7 K, 100 kPa, Gas	0.03462 ± 0.0012
467.36 K, 11000 kPa, Liquid	0.08067 ± 0.0031
467.36 K, 11500 kPa, Liquid	0.08129 ± 0.0031
467.36 K, 12000 kPa, Liquid	0.08175 ± 0.0031
467.36 K, 13000 kPa, Liquid	0.08285 ± 0.0031
467.36 K, 13800 kPa, Liquid	0.08362 ± 0.0032
467.36 K, 15200 kPa, Liquid	0.08486 ± 0.0032
467.36 K, 16000 kPa, Liquid	0.08553 ± 0.0032
467.36 K, 16500 kPa, Liquid	0.08593 ± 0.0032
467.36 K, 17000 kPa, Liquid	0.08638 ± 0.0032
467.36 K, 17500 kPa, Liquid	0.08673 ± 0.0032
467.36 K, 18000 kPa, Liquid	0.08718 ± 0.0033
467.36 K, 18500 kPa, Liquid	0.0876 ± 0.0033
467.36 K, 19000 kPa, Liquid	0.08803 ± 0.0033
467.36 K, 19500 kPa, Liquid	0.08843 ± 0.0033
467.36 K, 20000 kPa, Liquid	0.08879 ± 0.0033
467.36 K, 20500 kPa, Liquid	0.08919 ± 0.0033
467.36 K, 21000 kPa, Liquid	0.08956 ± 0.0033
467.36 K, 21500 kPa, Liquid	0.08989 ± 0.0034
467.36 K, 22000 kPa, Liquid	0.09031 ± 0.0034
467.36 K, 22500 kPa, Liquid	0.09068 ± 0.0034
467.36 K, 23000 kPa, Liquid	0.0911 ± 0.0034
467.36 K, 23500 kPa, Liquid	0.09141 ± 0.0034
467.36 K, 24000 kPa, Liquid	0.0918 ± 0.0034
467.36 K, 24500 kPa, Liquid	0.09219 ± 0.0034
467.36 K, 25000 kPa, Liquid	0.09258 ± 0.0034
467.36 K, 25500 kPa, Liquid	0.09286 ± 0.0034
467.36 K, 26000 kPa, Liquid	0.09318 ± 0.0035
467.36 K, 26500 kPa, Liquid	0.09358 ± 0.0035
467.36 K, 27000 kPa, Liquid	0.0939 ± 0.0035
467.36 K, 27500 kPa, Liquid	0.09419 ± 0.0035
467.36 K, 28000 kPa, Liquid	0.09456 ± 0.0035
467.36 K, 28500 kPa, Liquid	0.09489 ± 0.0035
467.36 K, 29000 kPa, Liquid	0.09522 ± 0.0035
467.36 K, 29500 kPa, Liquid	0.09552 ± 0.0035
467.36 K, 30000 kPa, Liquid	0.09583 ± 0.0036
467.36 K, 30500 kPa, Liquid	0.09613 ± 0.0036
467.36 K, 31000 kPa, Liquid	0.09634 ± 0.0036
467.36 K, 31280 kPa, Liquid	0.09643 ± 0.0036
467.36 K, 31300 kPa, Liquid	0.09647 ± 0.0036
467.36 K, 31340 kPa, Liquid	0.09656 ± 0.0036
467.76 K, 100 kPa, Gas	0.03471 ± 0.0012
468.02 K, 100 kPa, Gas	0.03483 ± 0.0012
468.08 K, 100 kPa, Gas	0.03457 ± 0.0012
468.57 K, 100 kPa, Gas	0.03481 ± 0.0012
469.93 K, 100 kPa, Gas	0.03492 ± 0.0012
470.04 K, 2036 kPa, Gas	0.03754 ± 0.0013
470.07 K, 100 kPa, Gas	0.03498 ± 0.0012
470.2 K, 100 kPa, Gas	0.03485 ± 0.0012
471.68 K, 100 kPa, Gas	0.03523 ± 0.0012
472.17 K, 1697 kPa, Gas	0.03753 ± 0.0013
472.21 K, 100 kPa, Gas	0.03519 ± 0.0012
472.84 K, 100 kPa, Gas	0.03528 ± 0.0012
472.97 K, 100 kPa, Gas	0.03526 ± 0.0012
473.01 K, 100 kPa, Gas	0.03533 ± 0.0012
473.86 K, 100 kPa, Gas	0.03563 ± 0.0013
474.81 K, 100 kPa, Gas	0.03571 ± 0.0013
475.4 K, 100 kPa, Gas	0.03567 ± 0.0013
475.7 K, 10375 kPa, Gas	0.07726 ± 0.0027
475.7 K, 17575 kPa, Gas	0.0849 ± 0.003
475.7 K, 19975 kPa, Gas	0.08712 ± 0.0031
475.7 K, 24775 kPa, Gas	0.0897 ± 0.0032
475.7 K, 29975 kPa, Gas	0.09365 ± 0.0034
475.7 K, 40275 kPa, Gas	0.09992 ± 0.0037
475.7 K, 48475 kPa, Gas	0.1033 ± 0.0039
476.21 K, 100 kPa, Gas	0.03593 ± 0.0013
478.08 K, 100 kPa, Gas	0.03587 ± 0.0013
478.2 K, 100 kPa, Gas	0.03595 ± 0.0013
478.5 K, 2001 kPa, Gas	0.03835 ± 0.0013
478.5 K, 10175 kPa, Gas	0.07793 ± 0.0027
478.5 K, 19775 kPa, Gas	0.08695 ± 0.0031
478.5 K, 20375 kPa, Gas	0.08696 ± 0.0031
478.5 K, 30175 kPa, Gas	0.09387 ± 0.0034
478.5 K, 32975 kPa, Gas	0.09616 ± 0.0035
478.5 K, 40175 kPa, Gas	0.1002 ± 0.0037
